Eight compounds from patent publication US10568874B2, “Indane-amines as PD-L1 antagonists” (CHEMOCENTRYX, INC., priority 2018, dated 2020) can be followed below.

The assay has as its target human PD-L1 (Homo sapiens (Human), UniProt Q9NZQ7). Description: Enzyme-Linked Immunosorbent Assay (ELISA), PD-1/PD-L1 binding. The note with it: plate-coated human PD-L1, biotinylated human PD-1. On the procedure:
Plates were coated with 1 μg/mL of human PD-L1 (obtained from R&D) in PBS overnight at 4° C. The wells were then blocked with 2% BSA in PBS (W/V) with 0.05% TWEEN-20 for 1 hour at 37° C. The plates were washed 3 times with PBS/0.05% TWEEN-20 and the samples were diluted to 1:5 in dilution medium in the ELISA plates. Human PD-1 and biotin 0.3 μg/mL (ACRO Biosystems) were added and incubated for 1 hour at 37° C. then washed 3 times with PBS/0.05% TWEEN-20. A second block was added with 2% SA in PBS (W/V)/0.05% TWEEN-20 for 10 min at 37° C. and was washed 3 times with PBS/0.05% TWEEN-20. Streptavidin-HRP was added for 1 hour at 37° C. then washed 3 times with PBS/0.05% TWEEN-20. TMB substrate was added and reacted for 20 min at 37° C. A stop solution (2 N aqueous H2SO4) was added. The absorbance was read at 450 nm using a micro-plate spectrophotometer.

human PD-L1, sequence (Q9NZQ7 19-239): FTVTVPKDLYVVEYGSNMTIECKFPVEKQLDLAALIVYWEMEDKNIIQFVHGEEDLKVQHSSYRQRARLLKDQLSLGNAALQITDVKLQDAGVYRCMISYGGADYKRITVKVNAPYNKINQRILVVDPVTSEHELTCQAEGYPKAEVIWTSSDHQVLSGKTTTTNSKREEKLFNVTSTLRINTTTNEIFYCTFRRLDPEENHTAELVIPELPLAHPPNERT

The compound `CCOc1cc(NC2CCc3c(-c4cccc(OCCCN5CCC(C)(F)CC5)c4Cl)cccc32)c(Cl)cc1CN[C@H]1CCC(=O)NC1` (some centres unmarked) gave an IC50 of 500 to 20000 nM.
Compound `CCOc1cc(NC2CCc3c(-c4cccc(OCCCN5CCC(F)CC5)c4C)cccc32)c(Cl)cc1CNC[C@@H]1CCC(=O)N1` (some centres unmarked) displayed an IC50 of 5 to 500 nM.
`CCOc1cc(NC2CCc3c(-c4cccc(OCCCN5CCC(C)(F)CC5)c4C)cccc32)c(Cl)cc1CN[C@H]1CCC(=O)NC1` (some centres unmarked) returned an IC50 of 500 to 20000 nM.
In turn, `CCOc1cc(NC2CCc3c(-c4cccc(OCCCN5CCC(F)CC5)c4C)cccc32)c(Cl)cc1CN[C@@H](CO)C(=O)O` (some centres unmarked) displayed an IC50 of 5 to 500 nM.
`CCOc1cc(NC2CCc3c(-c4cccc(OCCCN5CCC(F)CC5)c4C)cccc32)c(Cl)cc1CN[C@H]1CCC(=O)NC1` (some centres unmarked) showed an IC50 of 500 to 20000 nM.
As for `CCOc1cc(NC2CCc3c(-c4cccc(OCCCN5CCC(C)(F)CC5)c4Cl)cccc32)c(Cl)cc1CN1CCC(O)CC1` (centres unmarked), the concentration for half-maximal inhibition (IC50) lay within 500 to 20000 nM.
`CCOc1cc(NC2CCc3c(-c4cccc(OCCCN5CCC(C)(F)CC5)c4C)cccc32)c(Cl)cc1CNC[C@@H]1CCC(=O)N1` (some centres unmarked) showed an IC50 of 5 to 500 nM.
Compound `CCOc1cc(NC2CCc3c(-c4ccccc4F)cccc32)c(Cl)cc1CN[C@@H](CO)C(=O)O` (stereo partly drawn) [(2S)-2-[[5-chloro-2-ethoxy-4-[[4-(2-fluorophenyl)indan-1-yl]amino]phenyl]methylamino]-3-hydroxy-propanoic Acid] had an IC50 of 5 to 500 nM.
